Patent publication US20210251963A1, “UREA DERIVATIVES FOR USE IN THE TREATMENT OF SUBJECTS WITH ELEVATED EXPRESSION AND/OR ACTIVITY OF SRPK1” (Scandion Oncology A/S, priority 2018, published 2021)

How the values were obtained:
Assay in all cases: Premier Screen kinase activity screening (33P ATP filter binding)
Assay type in all cases: biochemical
Settings in all cases: 10 μM SCO-101, mean of assay duplicates, read-out: Kinase activity (percentage of DMSO control)
[1] = biological target: T1, ABL (Homo sapiens, UniProt P00519)
T1 construct: MRC in Dundee (screening service)
How it was run: (§1)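 Each kinase was incubated with 10 μM compound and 33P-ATP, and incorporated radioactivity was captured on filters as a direct measure of enzyme activity. Mean percentage activity of the duplicates was then calculated against DMSO controls and reported with its standard deviation.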

[2] = biological target: T2, Aurora A (Homo sapiens, UniProt O14965)
T2 construct: MRC in Dundee (screening service)
T2 sequence (O14965 whole entry): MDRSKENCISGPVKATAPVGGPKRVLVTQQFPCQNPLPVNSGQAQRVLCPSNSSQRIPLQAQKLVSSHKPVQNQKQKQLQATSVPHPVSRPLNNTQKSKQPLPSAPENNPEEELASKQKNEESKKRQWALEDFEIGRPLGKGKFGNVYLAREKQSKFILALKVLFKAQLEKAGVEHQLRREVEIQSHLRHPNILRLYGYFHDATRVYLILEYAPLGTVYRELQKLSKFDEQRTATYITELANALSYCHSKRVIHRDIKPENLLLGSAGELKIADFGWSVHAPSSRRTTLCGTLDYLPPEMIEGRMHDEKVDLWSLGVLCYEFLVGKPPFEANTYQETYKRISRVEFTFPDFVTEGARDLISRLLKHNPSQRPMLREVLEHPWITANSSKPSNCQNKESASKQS
How it was run: as §1

[3] = biological target: T3, BRSK1 (Homo sapiens, UniProt Q8TDC3)
T3 construct: purchased MRC in Dundee (Premier Screen service)
T3 sequence (Q8TDC3 whole entry, species assumed): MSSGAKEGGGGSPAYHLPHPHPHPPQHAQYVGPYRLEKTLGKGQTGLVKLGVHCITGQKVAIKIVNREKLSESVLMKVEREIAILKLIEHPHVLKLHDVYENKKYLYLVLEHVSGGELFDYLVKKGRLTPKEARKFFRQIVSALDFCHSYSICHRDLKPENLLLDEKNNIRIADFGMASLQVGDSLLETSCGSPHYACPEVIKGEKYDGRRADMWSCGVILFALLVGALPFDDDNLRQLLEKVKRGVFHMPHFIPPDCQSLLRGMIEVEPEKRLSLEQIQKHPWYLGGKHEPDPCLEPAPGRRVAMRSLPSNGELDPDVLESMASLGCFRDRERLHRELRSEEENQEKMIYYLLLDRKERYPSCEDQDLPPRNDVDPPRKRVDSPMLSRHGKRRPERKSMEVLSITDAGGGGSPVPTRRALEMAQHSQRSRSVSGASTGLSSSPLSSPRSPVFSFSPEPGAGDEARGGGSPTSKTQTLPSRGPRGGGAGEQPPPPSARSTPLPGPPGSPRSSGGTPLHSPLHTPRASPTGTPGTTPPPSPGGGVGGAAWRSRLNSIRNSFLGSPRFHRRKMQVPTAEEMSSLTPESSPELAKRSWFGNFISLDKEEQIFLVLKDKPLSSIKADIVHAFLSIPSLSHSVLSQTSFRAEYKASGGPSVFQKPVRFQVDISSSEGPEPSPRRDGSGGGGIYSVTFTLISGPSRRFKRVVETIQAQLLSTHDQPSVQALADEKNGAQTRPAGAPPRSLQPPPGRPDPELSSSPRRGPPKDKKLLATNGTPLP
How it was run: as §1

[4] = biological target: T4, BTK (Homo sapiens, UniProt Q06187)
T4 construct: MRC in Dundee (screening service)
How it was run: as §1

[5] = biological target: CHK2 (Homo sapiens, UniProt O96017)
How it was run: as §1

[6] = biological target: T5, CK2 (Homo sapiens, UniProt P68400)
T5 construct: purchased MRC Dundee, Premier Screen (contract screening service)
How it was run: as §1

[7] = biological target: T6, DYRK1A (Homo sapiens, UniProt Q13627)
T6 construct: purchased MRC Dundee, Premier Screen (contract screening service)
How it was run: as §1

[8] = biological target: T7, DYRK3 (Homo sapiens, UniProt O43781)
T7 construct: purchased MRC in Dundee (Premier Screen service)
T7 sequence (O43781 whole entry, species assumed): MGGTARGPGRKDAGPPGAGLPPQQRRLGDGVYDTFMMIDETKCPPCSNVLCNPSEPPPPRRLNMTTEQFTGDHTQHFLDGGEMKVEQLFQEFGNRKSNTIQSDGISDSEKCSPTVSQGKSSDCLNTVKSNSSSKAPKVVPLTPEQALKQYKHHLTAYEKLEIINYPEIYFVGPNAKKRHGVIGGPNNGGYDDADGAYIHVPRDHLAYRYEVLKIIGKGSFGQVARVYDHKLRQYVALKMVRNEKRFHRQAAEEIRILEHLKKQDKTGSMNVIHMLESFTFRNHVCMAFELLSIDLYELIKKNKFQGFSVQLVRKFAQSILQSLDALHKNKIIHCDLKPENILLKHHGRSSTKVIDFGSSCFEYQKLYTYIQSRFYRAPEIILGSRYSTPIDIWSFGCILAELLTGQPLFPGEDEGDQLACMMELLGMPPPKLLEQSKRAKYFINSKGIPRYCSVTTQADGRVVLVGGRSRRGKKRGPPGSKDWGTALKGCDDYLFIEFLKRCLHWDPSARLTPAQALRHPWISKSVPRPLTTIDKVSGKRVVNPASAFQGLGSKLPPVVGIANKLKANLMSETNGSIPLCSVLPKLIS
How it was run: as §1

[9] = biological target: EPH-B3 (Homo sapiens, UniProt P54753)
How it was run: as §1

[10] = biological target: T8, ERK1 (Homo sapiens, UniProt P27361)
T8 construct: purchased MRC in Dundee (Premier Screen service)
How it was run: as §1

[11] = biological target: T9, GCK (Homo sapiens, UniProt Q12851)
T9 construct: MRC in Dundee (screening service)
How it was run: as §1

[12] = biological target: T10, IKKe (Homo sapiens, UniProt Q14164)
T10 construct: purchased MRC in Dundee (Premier Screen service)
How it was run: as §1

[13] = biological target: T11, IRR (Homo sapiens, UniProt P14616)
T11 construct: purchased MRC in Dundee (Premier Screen service)
How it was run: as §1

[14] = biological target: T12, JNK3 (Homo sapiens, UniProt P53779)
T12 construct: purchased MRC Dundee, Premier Screen (contract screening service)
How it was run: as §1

[15] = biological target: T13, LKB1 (Homo sapiens, UniProt Q15831)
T13 construct: MRC Dundee (screening service)
T13 sequence (Q15831 whole entry, species assumed): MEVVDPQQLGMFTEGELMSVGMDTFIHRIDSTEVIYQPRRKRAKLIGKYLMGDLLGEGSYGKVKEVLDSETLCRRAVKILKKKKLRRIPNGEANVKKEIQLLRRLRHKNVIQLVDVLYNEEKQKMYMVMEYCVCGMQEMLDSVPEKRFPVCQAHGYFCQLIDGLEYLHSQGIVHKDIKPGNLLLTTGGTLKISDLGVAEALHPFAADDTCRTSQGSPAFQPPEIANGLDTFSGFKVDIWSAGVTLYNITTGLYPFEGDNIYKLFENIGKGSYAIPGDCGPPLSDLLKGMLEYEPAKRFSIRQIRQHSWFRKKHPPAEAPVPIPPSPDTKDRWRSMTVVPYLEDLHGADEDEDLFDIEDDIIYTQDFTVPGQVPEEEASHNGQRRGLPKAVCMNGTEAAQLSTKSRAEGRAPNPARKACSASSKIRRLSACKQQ
T13 sequence (Q7RTN6 whole entry partner, species assumed): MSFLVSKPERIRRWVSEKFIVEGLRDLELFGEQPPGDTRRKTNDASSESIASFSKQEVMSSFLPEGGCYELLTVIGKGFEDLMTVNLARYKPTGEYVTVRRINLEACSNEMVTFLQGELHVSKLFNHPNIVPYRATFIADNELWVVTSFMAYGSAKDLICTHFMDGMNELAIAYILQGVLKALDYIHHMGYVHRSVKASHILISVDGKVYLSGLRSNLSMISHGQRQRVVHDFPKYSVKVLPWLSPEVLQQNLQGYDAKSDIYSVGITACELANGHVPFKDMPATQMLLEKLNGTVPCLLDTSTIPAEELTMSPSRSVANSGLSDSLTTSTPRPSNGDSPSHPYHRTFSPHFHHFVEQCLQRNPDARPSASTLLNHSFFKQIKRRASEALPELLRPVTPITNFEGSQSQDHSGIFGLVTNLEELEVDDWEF
T13 sequence (Q9Y376 whole entry partner, species assumed): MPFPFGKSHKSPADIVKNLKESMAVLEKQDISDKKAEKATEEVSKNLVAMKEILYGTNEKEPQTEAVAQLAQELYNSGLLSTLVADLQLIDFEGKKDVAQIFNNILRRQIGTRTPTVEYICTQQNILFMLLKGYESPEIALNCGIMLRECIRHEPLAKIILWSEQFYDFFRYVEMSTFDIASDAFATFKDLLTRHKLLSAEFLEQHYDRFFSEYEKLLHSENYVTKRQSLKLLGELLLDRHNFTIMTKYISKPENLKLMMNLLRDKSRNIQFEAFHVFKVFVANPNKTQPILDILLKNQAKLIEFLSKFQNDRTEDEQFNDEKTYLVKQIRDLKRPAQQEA
How it was run: as §1

[16] = biological target: T14, Lck (Homo sapiens, UniProt P06239)
T14 construct: purchased MRC Dundee, Premier Screen (contract screening service)
How it was run: as §1

[17] = biological target: T15, MAPKAP-K3 (Homo sapiens, UniProt Q16644)
T15 construct: MRC in Dundee (screening service)
How it was run: as §1

[18] = biological target: T16, MARK2 (Homo sapiens, UniProt Q7KZI7)
T16 construct: MRC Dundee (screening service)
How it was run: as §1

[19] = biological target: T17, MARK4 (Homo sapiens, UniProt Q96L34)
T17 construct: MRC in Dundee (screening service)
How it was run: as §1

[20] = biological target: T18, MEKK1 (Homo sapiens, UniProt Q13233)
T18 construct: purchased MRC Dundee, Premier Screen (contract screening service)
How it was run: as §1

[21] = biological target: T19, MST2 (Homo sapiens, UniProt Q13188)
T19 construct: purchased MRC in Dundee (Premier Screen service)
How it was run: as §1

[22] = biological target: T20, OSR1 (Homo sapiens, UniProt O95747)
T20 construct: MRC in Dundee (screening service)
How it was run: as §1

[23] = biological target: T21, PAK4 (Homo sapiens, UniProt O96013)
T21 construct: purchased MRC in Dundee (Premier Screen service)
T21 sequence (O96013 whole entry, species assumed): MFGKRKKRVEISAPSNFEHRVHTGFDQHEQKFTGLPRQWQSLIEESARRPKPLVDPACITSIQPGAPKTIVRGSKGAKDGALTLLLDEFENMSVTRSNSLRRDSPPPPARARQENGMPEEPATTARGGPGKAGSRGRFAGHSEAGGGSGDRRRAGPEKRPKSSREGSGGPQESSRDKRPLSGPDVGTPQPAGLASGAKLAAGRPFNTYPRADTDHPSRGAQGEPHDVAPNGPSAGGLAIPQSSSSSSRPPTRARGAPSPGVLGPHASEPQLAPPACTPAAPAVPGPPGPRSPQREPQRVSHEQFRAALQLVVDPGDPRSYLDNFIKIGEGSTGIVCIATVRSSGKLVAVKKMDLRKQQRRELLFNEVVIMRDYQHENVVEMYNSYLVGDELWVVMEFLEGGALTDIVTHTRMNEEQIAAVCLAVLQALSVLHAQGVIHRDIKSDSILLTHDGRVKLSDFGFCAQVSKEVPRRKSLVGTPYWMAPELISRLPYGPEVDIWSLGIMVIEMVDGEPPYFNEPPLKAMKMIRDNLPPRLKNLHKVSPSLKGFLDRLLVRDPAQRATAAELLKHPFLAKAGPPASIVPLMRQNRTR
How it was run: as §1

[24] = biological target: PAK6 (Homo sapiens, UniProt Q9NQU5)
Sequence of PAK6 (Q9NQU5 whole entry, species assumed): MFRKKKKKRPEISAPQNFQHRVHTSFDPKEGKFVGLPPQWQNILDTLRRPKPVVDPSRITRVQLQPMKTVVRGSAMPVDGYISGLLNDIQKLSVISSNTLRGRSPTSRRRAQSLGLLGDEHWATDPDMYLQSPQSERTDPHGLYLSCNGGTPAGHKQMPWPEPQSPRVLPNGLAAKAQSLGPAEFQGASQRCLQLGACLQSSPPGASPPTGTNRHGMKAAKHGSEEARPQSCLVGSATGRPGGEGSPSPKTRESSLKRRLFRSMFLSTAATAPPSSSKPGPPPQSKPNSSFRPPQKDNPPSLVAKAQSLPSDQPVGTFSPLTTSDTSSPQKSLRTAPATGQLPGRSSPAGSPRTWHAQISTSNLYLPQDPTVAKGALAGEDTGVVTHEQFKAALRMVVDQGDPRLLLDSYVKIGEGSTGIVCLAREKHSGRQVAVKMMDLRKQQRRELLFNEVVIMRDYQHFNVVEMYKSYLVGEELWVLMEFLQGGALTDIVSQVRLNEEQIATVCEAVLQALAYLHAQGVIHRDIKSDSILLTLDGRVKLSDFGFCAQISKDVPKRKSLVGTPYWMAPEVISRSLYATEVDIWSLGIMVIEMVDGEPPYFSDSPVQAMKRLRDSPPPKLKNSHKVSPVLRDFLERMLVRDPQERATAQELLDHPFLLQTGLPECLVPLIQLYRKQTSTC
How it was run: as §1

[25] = biological target: T22, PDGFRA (Homo sapiens, UniProt P16234)
T22 construct: purchased MRC in Dundee (Premier Screen service)
How it was run: as §1

[26] = biological target: T23, PDK1 (Homo sapiens, UniProt O15530)
T23 construct: purchased MRC Dundee, Premier Screen (contract screening service)
How it was run: as §1

[27] = biological target: T24, PIM1 (Homo sapiens, UniProt P11309)
T24 construct: purchased MRC in Dundee (Premier Screen service)
T24 sequence (P11309 whole entry, species assumed): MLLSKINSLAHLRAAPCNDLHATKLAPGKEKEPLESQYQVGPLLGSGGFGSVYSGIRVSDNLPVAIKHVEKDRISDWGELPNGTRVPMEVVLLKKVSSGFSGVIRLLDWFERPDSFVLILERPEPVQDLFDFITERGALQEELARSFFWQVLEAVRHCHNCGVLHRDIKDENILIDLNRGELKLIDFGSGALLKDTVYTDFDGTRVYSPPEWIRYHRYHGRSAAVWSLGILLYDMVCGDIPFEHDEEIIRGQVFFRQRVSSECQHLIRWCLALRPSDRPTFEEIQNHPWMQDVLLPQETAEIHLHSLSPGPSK
How it was run: as §1

[28] = biological target: T25, PIM2 (Homo sapiens, UniProt Q9P1W9)
T25 construct: purchased MRC in Dundee (Premier Screen service)
How it was run: as §1

[29] = biological target: T26, PKA (Homo sapiens, UniProt P17612)
T26 construct: purchased MRC Dundee, Premier Screen (contract screening service)
How it was run: as §1

[30] = biological target: T27, PKBa (Homo sapiens, UniProt P31749)
T27 construct: purchased MRC in Dundee (Premier Screen service)
How it was run: as §1

[31] = biological target: T28, PLK1 (Homo sapiens, UniProt P53350)
T28 construct: purchased MRC in Dundee (Premier Screen service)
How it was run: as §1

[32] = biological target: PRK2 (Homo sapiens, UniProt Q16513)
How it was run: as §1

[33] = biological target: T29, TSSK1 (Homo sapiens, UniProt Q9BXA7)
T29 construct: MRC in Dundee (screening service)
How it was run: as §1

[34] = biological target: ULK1 (Homo sapiens, UniProt O75385)
How it was run: as §1

[35] = biological target: T30, ULK2 (Homo sapiens, UniProt Q8IYT8)
T30 construct: MRC Dundee (screening service)
How it was run: as §1

[36] = biological target: p38d MAPK (Homo sapiens, UniProt O15264)
Sequence of p38d MAPK (O15264 whole entry): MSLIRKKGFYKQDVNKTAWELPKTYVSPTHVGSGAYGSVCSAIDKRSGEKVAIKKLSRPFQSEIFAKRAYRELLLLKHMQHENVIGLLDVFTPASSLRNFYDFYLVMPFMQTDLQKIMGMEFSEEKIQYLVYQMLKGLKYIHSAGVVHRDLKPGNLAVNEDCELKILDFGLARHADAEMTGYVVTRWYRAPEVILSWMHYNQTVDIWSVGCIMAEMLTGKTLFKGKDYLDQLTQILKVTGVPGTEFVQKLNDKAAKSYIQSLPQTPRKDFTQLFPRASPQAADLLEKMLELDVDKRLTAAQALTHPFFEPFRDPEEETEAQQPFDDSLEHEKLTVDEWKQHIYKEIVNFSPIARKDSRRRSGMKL
How it was run: as §1

O=C(Nc1cc(C(F)(F)F)cc(C(F)(F)F)c1)Nc1ccc(Br)cc1-c1nnn[nH]1 [SCO-101]
remaining activity at 10 µM [1]: 85% | remaining activity at 10 µM [2]: 94% | remaining activity at 10 µM [3]: 124% | remaining activity at 10 µM [4]: 78% | remaining activity at 10 µM [5]: 114% | remaining activity at 10 µM [6]: 107% | remaining activity at 10 µM [7]: 112% | remaining activity at 10 µM [8]: 59% | remaining activity at 10 µM [9]: 114% | remaining activity at 10 µM [10]: 137% | remaining activity at 10 µM [11]: 92% | remaining activity at 10 µM [12]: 75% | remaining activity at 10 µM [13]: 131% | remaining activity at 10 µM [14]: 112% | remaining activity at 10 µM [15]: 96% | remaining activity at 10 µM [16]: 103% | remaining activity at 10 µM [17]: 85% | remaining activity at 10 µM [18]: 100% | remaining activity at 10 µM [19]: 90% | remaining activity at 10 µM [20]: 105% | remaining activity at 10 µM [21]: 146% | remaining activity at 10 µM [22]: 94% | remaining activity at 10 µM [23]: 38% | remaining activity at 10 µM [24]: 123% | remaining activity at 10 µM [25]: 62% | remaining activity at 10 µM [26]: 108% | remaining activity at 10 µM [27]: 61% | remaining activity at 10 µM [28]: 72% | remaining activity at 10 µM [29]: 106% | remaining activity at 10 µM [30]: 126% | remaining activity at 10 µM [31]: 59% | remaining activity at 10 µM [32]: 120% | remaining activity at 10 µM [33]: 83% | remaining activity at 10 µM [34]: 114% | remaining activity at 10 µM [35]: 95% | remaining activity at 10 µM [36]: 113%
